Converted amounts (≈) assume the structure as drawn.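 Five compound concentrations were applied to cells in 96-well plates for 48 hours; endpoints were derived by simple linear interpolation of the resulting dose-response curve. GI50 is the concentration that inhibits growth by half. At the TGI there is no net growth.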 Non-standard residues stand in square brackets, D forms with d. Residues, ends and D or L forms follow the SMILES beside them. *: point of attachment. hSer = N[CH](CCO)C(=O)O; Boc = CC(C)(C)OC(=O)*
Experiments:
Assay in all cases: DTP human tumour cell line panel, 48 h; in the data active = GI50 below about 0.43 µM; inactive = the rest
[1] = tested on: UO-31 renal
[2] = tested on: PC-3 prostate
[3] = tested on: DU-145 prostate
[4] = tested on: RXF 393 renal
[5] = tested on: CCRF-CEM leukemia
[6] = tested on: HOP-92 NSCLC
[7] = tested on: SK-MEL-5 melanoma
[8] = tested on: SK-MEL-2 melanoma
[9] = tested on: A549 NSCLC
[10] = tested on: MDA-MB-231 breast
[11] = tested on: CAKI-1 renal
[12] = tested on: UACC-62 melanoma
[13] = tested on: HCT-15 colon
[14] = tested on: MCF7 breast
[15] = tested on: IGROV1 ovarian
[16] = tested on: ACHN renal
[17] = tested on: LOX IMVI melanoma
[18] = tested on: NCI-H522 lung
[19] = tested on: NCI-H226 lung
[20] = tested on: NCI-H23 lung
[21] = tested on: 786-0 renal
[22] = tested on: SK-OV-3 ovarian
[23] = tested on: SNB-19 CNS
[24] = tested on: TK-10 renal
[25] = tested on: T-47D breast
[26] = tested on: HCC-2998 colon
[27] = tested on: RPMI-8226 leukemia
[28] = tested on: SF-268 CNS
[29] = tested on: HL-60(TB) leukemia
[30] = tested on: HCT-116 colon
[31] = tested on: OVCAR-8 ovarian
[32] = tested on: SW-620 colon
[33] = tested on: NCI-H460 lung
[34] = tested on: OVCAR-5 ovarian
[35] = tested on: MALME-3M melanoma
[36] = tested on: M14 melanoma
[37] = tested on: KM12 colon
[38] = tested on: K-562 leukemia
[39] = tested on: OVCAR-4 ovarian
[40] = tested on: EKVX NSCLC
[41] = tested on: MDA-MB-435
[42] = tested on: MOLT-4 leukemia
[43] = tested on: OVCAR-3 ovarian
[44] = tested on: SK-MEL-28 melanoma
[45] = tested on: UACC-257 melanoma
[46] = tested on: U251 CNS
[47] = tested on: BT-549 breast
[48] = tested on: NCI/ADR-RES ovarian
[49] = tested on: A498 renal
[50] = tested on: HT29 colon
[51] = tested on: SNB-75 CNS
[52] = tested on: COLO 205 colon
[53] = tested on: HOP-62 NSCLC
[54] = tested on: SN12C renal
[55] = tested on: SF-295 CNS
[56] = tested on: SF-539 CNS
[57] = tested on: SR leukemia

COc1cc(C2=C(C#Cc3ccccc3)COC2=O)cc(OC)c1OC
> 76 µM: TGI [23]
> 70.4 µM: TGI [45]
63.1 µM: TGI [47]
> 90.9 µM: TGI [8]
4.6 µM: TGI [19]
8.16 µM: TGI [16]
16.8 µM: TGI [43]
4.87 µM: TGI [56]
22.2 µM: TGI [48]
> 45.4 µM: TGI [31]
10.5 µM: TGI [37]
2.95 µM: TGI [10]
inactive: GI50 [1] 3.6 µM | GI50 [2] 1.05 µM | GI50 [4] 1.35 µM | GI50 [5] 3.39 µM | GI50 [6] 2.77 µM | GI50 [7] 2.56 µM | GI50 [8] 5.35 µM | GI50 [9] 14.2 µM | GI50 [10] 0.492 µM | GI50 [11] 20.3 µM | GI50 [13] 1.3 µM | GI50 [16] 1.8 µM | GI50 [17] 0.738 µM | GI50 [18] 3.01 µM | GI50 [19] 1.73 µM | GI50 [20] 5.51 µM | GI50 [22] 20.4 µM | GI50 [23] 7.27 µM | GI50 [24] 1.9 µM | GI50 [25] 13.3 µM | GI50 [26] 12.4 µM | GI50 [27] 1.34 µM | GI50 [28] 4.59 µM | GI50 [30] 0.69 µM | GI50 [31] 5.37 µM | GI50 [32] 0.755 µM | GI50 [33] 3.3 µM | GI50 [34] 7.89 µM | GI50 [35] 3.72 µM | GI50 [36] 1.77 µM | GI50 [37] 1.87 µM | GI50 [38] 0.629 µM | GI50 [39] 34.2 µM | GI50 [40] 18.2 µM | GI50 [42] 30.1 µM | GI50 [43] 2.1 µM | GI50 [45] 6.17 µM | GI50 [46] 1.91 µM | GI50 [47] 3.26 µM | GI50 [48] 5.43 µM | GI50 [49] 41.1 µM | GI50 [50] 3.02 µM | GI50 [51] 4.98 µM | GI50 [52] 4.89 µM | GI50 [53] 0.706 µM | GI50 [55] 0.687 µM | GI50 [56] 0.646 µM
3.36 µM: TGI [29]
> 57.9 µM: TGI [34]
active: GI50 [3] 0.293 µM | GI50 [12] 0.288 µM | GI50 [14] 0.193 µM | GI50 [21] < 0.0224 µM | GI50 [29] 0.246 µM | GI50 [41] 0.302 µM | GI50 [54] 0.261 µM
20.1 µM: TGI [7]
4.12 µM: TGI [12]
4.01 µM: TGI [30]
> 94.6 µM: TGI [52]
25.8 µM: TGI [26]
11.7 µM: TGI [36]
9.39 µM: TGI [13]
> 32.7 µM: TGI [1]
33.1 µM: TGI [35]
2.61 µM: TGI [53]
> 100 µM: TGI [4] | TGI [9] | TGI [11] | TGI [14] | TGI [15] | TGI [22] | TGI [25] | TGI [28] | TGI [33] | TGI [38] | TGI [39] | TGI [42] | TGI [44] | TGI [49] | TGI [50] | TGI [51]
20.3 µM: TGI [2]
18 µM: TGI [3]
10.6 µM: TGI [6]
59.3 µM: TGI [5]
3.92 µM: TGI [17]
1.38 µM: TGI [54]
38.1 µM: TGI [40]
12.8 µM: TGI [20]
5.61 µM: TGI [46]
5.97 µM: TGI [24]
4.05 µM: TGI [27]
> 33.7 µM: TGI [18]

O=CC(O)C(O)C(O)C(O)COP(=O)(O)Cc1ccccc1 (stereo not drawn)
> 10 µM: TGI [4] | TGI [5] | TGI [57] | TGI [7] | TGI [8] | TGI [9] | TGI [11] | TGI [12] | TGI [14] | TGI [15] | TGI [16] | TGI [20] | TGI [21] | TGI [22] | TGI [25] | TGI [27] | TGI [28] | TGI [29] | TGI [32] | TGI [33] | TGI [34] | TGI [35] | TGI [36] | TGI [38] | TGI [39] | TGI [41] | TGI [42] | TGI [44] | TGI [46] | TGI [48] | TGI [51] | TGI [52] | TGI [53]

COCCC(NC(=O)C(CC(C)C)NC(=O)OC(C)(C)C)C(=O)OC (stereo not drawn) (Boc-Leu-[hSer](Me)-OMe; configuration not given here)
70.2 µg/mL: TGI [42]
80.1 µg/mL: TGI [18]
inactive: GI50 [5] 17.8 µg/mL | GI50 [57] 31.2 µg/mL (≈ 86.7 µM) | GI50 [13] 64.9 µg/mL | GI50 [14] 59.7 µg/mL | GI50 [17] 65.1 µg/mL | GI50 [18] 31.3 µg/mL | GI50 [26] 50.1 µg/mL | GI50 [29] 37 µg/mL | GI50 [30] 91.6 µg/mL | GI50 [31] 88.3 µg/mL | GI50 [33] 70.1 µg/mL | GI50 [36] 48.6 µg/mL | GI50 [37] 89.9 µg/mL | GI50 [38] 63.1 µg/mL | GI50 [39] 70.2 µg/mL | GI50 [42] 26 µg/mL | GI50 [43] 78.4 µg/mL

— PubChem BioAssay (NCI)
